Reference: patent US8206756B2, “Herbal composition for inflammatory disorders” (Piramal Life Sciences Limited, priority 2005, dated 2012)

Columns and labels:
TNF-α = TNF-α production by synovial cells from a RA patient; type: cell-based; details: Homo sapiens, Synovial cell, 10 hours
Description: (§1) Cytokine production by synovial cells obtained from a rheumatoid arthritis (RA) patient undergoing knee replacement surgery was measured according to the method described by Brennan, F. M. et al (The Lancet. July 29: 244-247, (1989)). The synovial membrane tissue was digested in DMEM (Gibco) containing 10% FBS, 100 U/ml penicillin and 100 μg/ml streptomycin, 4 mg/ml collagenase type I (Worthington), 1.5 μg/ml Dnase type I (Sigma) and 15 U/ml heparin and incubated at 37° C. for 3 hours. After incubation, the digested tissue was filtered through a 70-μm membrane and the cells washed 3 times in complete medium (DMEM with 10% FBS). The synovial cells were cultured at 1×10^6 cells/ml in presence/absence of the test sample for 10 hours. The supernatants were harvested by centrifugation and levels of the cytokines (TNF-α, IL-1β, IL-6, IL-8) measured by ELISA. To assess the cytotoxic effect of the plant extracts, the cellular viability test was performed using MTS reagent. The 50% inhibitory concentration (IC50) values were calculated by a nonlinear regression method using GraphPad software (Prism 3.03).
(§2) Effect on proinflammatory cytokines produced by synovial cells obtained from a RA patient was studied for compound 1 as described by procedure of example 8.

IL-6 = IL-6 production by synovial cells from a RA patient; type: cell-based; details: Homo sapiens, Synovial cell, 10 hours
Description: as §1, §2

ICAM-1 = experiment: Cell-ELISA for adhesion molecule expression in HUVECs: ICAM-1; type: cell-based; details: Homo sapiens; TNF-α-induced surface expression, HUVEC
Description: The assay was designed on the basis of reference Transplantation, Vol 63(5), 759-764, 1997 with modifications.
Human Umbilical Vein Endothelial Cells (HUVECs) were obtained from Cascade Biologics and were maintained in M200 (Cascade Biologics, Portland, Oreg.) supplemented with low serum growth supplement (LSGS) at 37° C. in a 5% CO2 incubator. U937 cells (ATCC, Manassas, Va.) were grown in the RPMI 1640 medium supplemented with 10% FBS (Hyclone, Logan, Utah). Recombinant human TNFα, antibodies to VCAM-1, ICAM-1, E-Selectin were obtained from R&D Systems and LPS was obtained from Sigma (St. Louis, Mo.).
HUVECs were plated at […] in 96-well fibronectin-coated plates. The cells were stimulated with TNF-α (10 ng/ml) or LPS (1 μg/ml), 30 min after addition of test compound. After stimulation, cells (E-Selectin and ICAM-1) were fixed with paraformaldehyde in phosphate buffer saline (PBS). Non specific binding was blocked by 2% bovine serum albumin (BSA) in phosphate buffer saline (PBS) for 1 h, and the cells were incubated with primary antibody for 2 h. […] After washing, seven times, 3,3′5,5′-tetramethylbenzidine liquid substrate (TMB substrate) was added and the optical density of each well was determined at 450 nm using a microtitre plate reader (Spectramax, Molecular Devices, Calif.). […] Percent inhibition of the test sample compared to the control is evaluated. […]

[1] = test system: Collagen-induced arthritis (CIA); experiment: Collagen-induced arthritis (CIA) in DBA/1J mice; type: in vivo; details: compared to vehicle treated group; H&E and Safranin O staining
Description: Male DBA/1J mice, aged 8-10 weeks, were immunized with 200 μg Collagen Type II as an emulsion in Freund's Complete Adjuvant, by an intradermal injection at the base of the tail. Twenty-one days later, the mice were administered a booster shot of 100 μg Collagen Type II. A set of naïve mice was also maintained alongside. From Day 23 onwards, the mice were assessed for the onset of rheumatoid arthritis using the Articular Index as a parameter. Mice with a minimum hind paw score of 2 were inducted into the study. Extract of example 1 was administered at a dose of 400 mpk (Milligram per kilogram body weight) by oral route twice daily for 12 days. Compound 1 was administered at a dose of 50 mpk and 100 mpk. by oral route twice daily for 12 days. Enbrel (3 mg/kg) was used as a standard and was given subcutaneous once daily. Paw volume and articular index were recorded daily. The data was analysed for statistical significance. On termination of the experiment the paws of the mice were processed for histopathological evaluation. Beneficial effect of extract of example 1 and compound 1 on pathology of arthritic (CIA) DBA/1J mice was evaluated. Microscopy was carried out after Hematoxylin and Eosin staining as well as Safranin O staining of synovial joints.

IC50 (TNF-α): 800 nM
IC50 (IL-6): 1400 nM
IC50 (ICAM-1): 520 nM
SMILES: C=C1C(=O)OC2C3=C(C)CCCC3(C)CCC12O (stereo not shown) [Compound 1, 3a-hydroxy-5a,9-dimethyl-3-methylene-3a,4,5,5a,6,7,8,9b-octahydro-3H-naphtho[1,2-b]furan-2-one]
Histopathological analysis of synovial joints [1]: beneficial effects in terms of reducing cartilage destruction, bone destruction and synovitis
